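Protocol summary: plate cells (96-well), add compound at 5 concentrations, incubate 48 h, interpolate endpoints linearly. Definition used: TGI = concentration required for complete inhibition of growth.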
Key:
Experiment in all cases: NCI anticancer screen, dose series, 48 h
A549 NSCLC = tested on: A549 NSCLC
KM12 colon = tested on: KM12 colon
SK-MEL-2 melanoma = tested on: SK-MEL-2 melanoma
SK-MEL-28 melanoma = tested on: SK-MEL-28 melanoma
NCI-H226 lung = tested on: NCI-H226 lung
SW-620 colon = tested on: SW-620 colon
MCF7 breast = tested on: MCF7 breast
SF-268 CNS = tested on: SF-268 CNS
T-47D breast = tested on: T-47D breast
TK-10 renal = tested on: TK-10 renal
SK-OV-3 ovarian = tested on: SK-OV-3 ovarian
PC-3 prostate = tested on: PC-3 prostate
UACC-257 melanoma = tested on: UACC-257 melanoma
A498 renal = tested on: A498 renal
M14 melanoma = tested on: M14 melanoma
HCC-2998 colon = tested on: HCC-2998 colon
K-562 leukemia = tested on: K-562 leukemia
BT-549 breast = tested on: BT-549 breast
EKVX NSCLC = tested on: EKVX NSCLC
MALME-3M melanoma = tested on: MALME-3M melanoma
NCI-H522 lung = tested on: NCI-H522 lung
NCI-H460 lung = tested on: NCI-H460 lung
HL-60(TB) leukemia = tested on: HL-60(TB) leukemia
COLO 205 colon = tested on: COLO 205 colon
IGROV1 ovarian = tested on: IGROV1 ovarian
U251 CNS = tested on: U251 CNS
HS 578T breast = tested on: HS 578T breast
OVCAR-3 ovarian = tested on: OVCAR-3 ovarian
MDA-MB-231 breast = tested on: MDA-MB-231 breast
HCT-15 colon = tested on: HCT-15 colon
CCRF-CEM leukemia = tested on: CCRF-CEM leukemia
OVCAR-4 ovarian = tested on: OVCAR-4 ovarian
786-0 renal = tested on: 786-0 renal
SF-539 CNS = tested on: SF-539 CNS
NCI-H23 lung = tested on: NCI-H23 lung
RPMI-8226 leukemia = tested on: RPMI-8226 leukemia
MDA-N = tested on: MDA-N
SN12C renal = tested on: SN12C renal
UACC-62 melanoma = tested on: UACC-62 melanoma
SNB-19 CNS = tested on: SNB-19 CNS
HCT-116 colon = tested on: HCT-116 colon
HOP-62 NSCLC = tested on: HOP-62 NSCLC
MDA-MB-435 = tested on: MDA-MB-435
DU-145 prostate = tested on: DU-145 prostate
LOX IMVI melanoma = tested on: LOX IMVI melanoma
MOLT-4 leukemia = tested on: MOLT-4 leukemia
RXF 393 renal = tested on: RXF 393 renal
SK-MEL-5 melanoma = tested on: SK-MEL-5 melanoma
SNB-75 CNS = tested on: SNB-75 CNS
OVCAR-8 ovarian = tested on: OVCAR-8 ovarian
SR leukemia = tested on: SR leukemia
ACHN renal = tested on: ACHN renal
UO-31 renal = tested on: UO-31 renal
HT29 colon = tested on: HT29 colon
CAKI-1 renal = tested on: CAKI-1 renal
NCI/ADR-RES ovarian = tested on: NCI/ADR-RES ovarian
HOP-92 NSCLC = tested on: HOP-92 NSCLC
OVCAR-5 ovarian = tested on: OVCAR-5 ovarian
SF-295 CNS = tested on: SF-295 CNS

CCc1nc(N)nc(N)c1-c1ccc2c(c1)nnn2CCc1ccccc1
TGI (A549 NSCLC): > 100 µM
TGI (KM12 colon): > 64.1 µM
TGI (SK-MEL-2 melanoma): 61.9 µM
TGI (SK-MEL-28 melanoma): > 71.5 µM
TGI (NCI-H226 lung): > 71.8 µM
TGI (SW-620 colon): > 66.5 µM
TGI (MCF7 breast): > 70 µM
TGI (SF-268 CNS): > 64.2 µM
TGI (T-47D breast): 64.5 µM
TGI (TK-10 renal): > 83.7 µM
TGI (SK-OV-3 ovarian): > 75.2 µM
TGI (PC-3 prostate): > 64.7 µM
TGI (UACC-257 melanoma): > 68.8 µM
TGI (A498 renal): > 79 µM
TGI (M14 melanoma): > 65.9 µM
TGI (HCC-2998 colon): 51.4 µM
TGI (K-562 leukemia): > 51.1 µM
TGI (BT-549 breast): > 69 µM
TGI (EKVX NSCLC): > 75.8 µM
TGI (MALME-3M melanoma): 49.5 µM
TGI (NCI-H522 lung): 33.9 µM
TGI (NCI-H460 lung): 51.2 µM
TGI (HL-60(TB) leukemia): 35.3 µM
TGI (COLO 205 colon): 42 µM
TGI (IGROV1 ovarian): > 70.3 µM
TGI (U251 CNS): > 70.5 µM
TGI (HS 578T breast): > 85 µM
TGI (OVCAR-3 ovarian): > 70.1 µM
TGI (MDA-MB-231 breast): > 72.4 µM
TGI (HCT-15 colon): > 63.2 µM
TGI (CCRF-CEM leukemia): > 69.9 µM
TGI (OVCAR-4 ovarian): > 100 µM
TGI (786-0 renal): 64.4 µM
TGI (SF-539 CNS): > 68.9 µM
TGI (NCI-H23 lung): > 64.9 µM
TGI (RPMI-8226 leukemia): 51.8 µM
TGI (MDA-N): > 68.3 µM
TGI (SN12C renal): > 73.5 µM
TGI (UACC-62 melanoma): > 65.7 µM
TGI (SNB-19 CNS): 86.4 µM
TGI (HCT-116 colon): > 61.1 µM
TGI (HOP-62 NSCLC): > 69.9 µM
TGI (MDA-MB-435): > 68.7 µM
TGI (DU-145 prostate): > 65.2 µM
TGI (LOX IMVI melanoma): > 65 µM
TGI (MOLT-4 leukemia): 50.2 µM
TGI (RXF 393 renal): > 73.8 µM
TGI (SK-MEL-5 melanoma): 32.2 µM
TGI (SNB-75 CNS): 64.1 µM
TGI (OVCAR-8 ovarian): > 64.9 µM
TGI (SR leukemia): 49.5 µM
TGI (ACHN renal): > 70.1 µM
TGI (UO-31 renal): > 60.6 µM
TGI (HT29 colon): 56.1 µM
TGI (CAKI-1 renal): > 100 µM
TGI (NCI/ADR-RES ovarian): 68.8 µM
TGI (HOP-92 NSCLC): > 79.6 µM
TGI (OVCAR-5 ovarian): > 82.5 µM
TGI (SF-295 CNS): 57.1 µM

COC12COC(=O)C1C(c1ccc3c(c1)OCO3)c1cc3c(cc1O2)OCO3 (stereo not drawn)
TGI (A549 NSCLC): > 100 µM
TGI (KM12 colon): > 100 µM
TGI (SK-MEL-2 melanoma): > 83.8 µM
TGI (SK-MEL-28 melanoma): > 100 µM
TGI (NCI-H226 lung): > 100 µM
TGI (SW-620 colon): > 100 µM
TGI (MCF7 breast): > 100 µM
TGI (SF-268 CNS): > 100 µM
TGI (T-47D breast): > 100 µM
TGI (TK-10 renal): > 100 µM
TGI (SK-OV-3 ovarian): > 75.8 µM
TGI (PC-3 prostate): > 100 µM
TGI (UACC-257 melanoma): > 96.4 µM
TGI (A498 renal): > 91.8 µM
TGI (M14 melanoma): > 100 µM
TGI (HCC-2998 colon): 53.1 µM
TGI (K-562 leukemia): 40.2 µM
TGI (BT-549 breast): > 100 µM
TGI (EKVX NSCLC): > 97.4 µM
TGI (MALME-3M melanoma): > 100 µM
TGI (NCI-H522 lung): 39.7 µM
TGI (NCI-H460 lung): > 100 µM
TGI (HL-60(TB) leukemia): > 52.3 µM
TGI (COLO 205 colon): > 93.8 µM
TGI (IGROV1 ovarian): > 100 µM
TGI (U251 CNS): > 100 µM
TGI (HS 578T breast): > 77.3 µM
TGI (OVCAR-3 ovarian): > 100 µM
TGI (MDA-MB-231 breast): > 100 µM
TGI (HCT-15 colon): > 100 µM
TGI (CCRF-CEM leukemia): > 84.2 µM
TGI (OVCAR-4 ovarian): > 100 µM
TGI (786-0 renal): > 96.8 µM
TGI (SF-539 CNS): 43.8 µM
TGI (NCI-H23 lung): > 100 µM
TGI (RPMI-8226 leukemia): > 87.9 µM
TGI (MDA-N): 11.7 µM
TGI (SN12C renal): > 100 µM
TGI (UACC-62 melanoma): > 100 µM
TGI (SNB-19 CNS): > 100 µM
TGI (HCT-116 colon): > 100 µM
TGI (HOP-62 NSCLC): 97.6 µM
TGI (MDA-MB-435): 9.13 µM
TGI (DU-145 prostate): > 93.5 µM
TGI (LOX IMVI melanoma): > 100 µM
TGI (MOLT-4 leukemia): > 87.9 µM
TGI (RXF 393 renal): 44.8 µM
TGI (SK-MEL-5 melanoma): > 100 µM
TGI (SNB-75 CNS): 59.2 µM
TGI (OVCAR-8 ovarian): > 100 µM
TGI (SR leukemia): > 100 µM
TGI (ACHN renal): > 100 µM
TGI (UO-31 renal): > 91.5 µM
TGI (HT29 colon): > 91 µM
TGI (CAKI-1 renal): > 100 µM
TGI (NCI/ADR-RES ovarian): > 74.1 µM
TGI (HOP-92 NSCLC): > 100 µM
TGI (OVCAR-5 ovarian): > 100 µM
TGI (SF-295 CNS): > 100 µM
